{"source": "patent US12264134B2", "about": "(Merck Sharp & Dohme LLC, priority 2018, dated 2025)", "key": {"IDO1 [1]": {"biological_target": "T1, IDO1 (Homo sapiens, UniProt P14902)", "T1 sequence (P14902 whole entry)": "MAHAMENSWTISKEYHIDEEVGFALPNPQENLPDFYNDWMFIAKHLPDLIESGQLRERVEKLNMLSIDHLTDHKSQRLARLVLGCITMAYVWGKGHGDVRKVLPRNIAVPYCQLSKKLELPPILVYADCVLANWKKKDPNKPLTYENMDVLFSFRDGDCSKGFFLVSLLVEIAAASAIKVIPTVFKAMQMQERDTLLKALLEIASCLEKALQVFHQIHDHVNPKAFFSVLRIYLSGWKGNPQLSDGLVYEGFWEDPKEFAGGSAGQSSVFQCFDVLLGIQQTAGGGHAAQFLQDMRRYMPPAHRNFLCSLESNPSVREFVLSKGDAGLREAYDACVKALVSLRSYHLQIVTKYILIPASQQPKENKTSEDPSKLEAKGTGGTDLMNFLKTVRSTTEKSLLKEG", "experiment": "IDO1 Human Whole blood Assay", "assay_type": "cell-based", "design": "Human whole blood was drawn in sodium heparin coated tubes from healthy internal donors; from tissue; host or cells: human whole blood from healthy donors, stimulated with LPS and IFNγ", "settings": "LPS and IFNγ stimulated, 18 h, read-out: Human Whole Blood Potency, IC50", "protocol": "IDO1Human Whole blood Assay\nCompounds to be tested were serially diluted in ten 3-fold steps in DMSO starting from 10 mM. 3 μL of compound dilutions or DMSO alone were then dispensed from the dilution plate into a polypropylene 96-well assay plate containing 97 μL of RPMI medium using an Echo 555 acoustic liquid handler (Labcyte). LPS and IFNγ was prepared in RPMI medium to a 10× of final conc. (1000 ng/mL), final concentration is 100 ng/mL.\nHuman whole blood was drawn in sodium heparin coated tubes from healthy internal donors. 240 μL of blood was transferred to each of the wells of a v-bottom 96 well plate. 30 μL of compound was transferred from intermediate dilution plate, and incubated for 15 min. 30 μL from stimulants was then transferred to blood and mixed thoroughly. Plate was covered with breathable membrane and incubated at 37° C. for overnight (18 h).\nOn day 2, isotope labeled standard solutions of kynurenine and tryptophan was made in water at 10× concentration and 30 μL was added to the blood at 3 μM final concentration. The assay plates were centrifuged at 300×G for 10 min with no brake to separate plasma from red blood cells. 60 μL of plasma samples was removed without disturbing red blood cells. Plasma was diluted with RPMI in 1:1 ratio and proteins were precipitated out with two volumes of Acetonitrile. The plates were centrifuged at 4000×G for 60 min. 20 μL of supernatant was carefully transferred to a 384 well plate containing 40 μL of 0.1% formic acid in water and analyzed by LC/MS/MS.\nLC/MS/MS analyses were performed using Thermo Fisher's LX4-TSQ Quantum Ultra system. This system consists of four Agilent binary high-performance liquid chromatography (HPLC) pumps and a TSQ Quantum Ultra triple quadrupole MS/MS instrument. For each sample, 5 μL were injected onto an Atlantis T3 column (2.1 mm×150 mm, 3 μm particle size) from Waters. The mobile phase gradient pumped at 0.8 mL/min was used to elute the analytes from the column at 25° C. The elution started at 0% B increasing linearly to 25% B at 6.5 min, holding at 25% for 1 min, re-equilibrating to 10 min. Mobile phase A consisted of 0.1% formic acid in water. Mobile phase B consisted of 0.1% of formic acid in acetonitrile. Data were acquired in positive mode using a HESI interface. The operational parameters for the TSQ Quantum Ultra instrument were a spray voltage of 4000 V, capillary temperature of 380° C., vaporizer temperature 400° C., shealth gas 60 arbitrary units, Aux gas 20 arbitrary units, tube lens 85 and collision gas 1.2 mTorr. SRM chromatograms of kynurenine (Q1: 209.2>Q3:94.0) and internal standard (Q1: 215.3>Q3:98.2) were collected for 90 sec. The peak area was integrated by Xcalibur Quan software. The ratios between the kynurenine generated in the reaction and 2D6-Kynurenine spiked-in internal standard were used to generate percentage inhibition and IC50 values. Compounds were titrated and IC50's were calculated by 4 parameter sigmoidal curve fitting formula."}, "IDO1 [2]": {"biological_target": "T1, IDO1", "experiment": "IDO1 Cellular Assay in HeLa Cells Stimulated with IFNγ", "assay_type": "cell-based", "settings": "read-out: HeLa Cell Potency, IC50"}}, "note": "pIC50: −log10 of the molar value. Counter-ions that a name gives are not always drawn."}
{"smiles": "Cc1cccc(N2CCN(C(=O)Cn3nc(C(=O)N4CC[C@@H](O)[C@@H](C)C4)c4c3C[C@H]3C[C@@H]43)CC2)c1C", "note": "[Example 281, 1-[4-(2,3-dimethylphenyl)piperazin-1-yl]-2-{(3bR,4aR)-3-[(3S,4R)-4-hydroxy-3-methylpiperidine-1-carbonyl]-3b,4,4a,5-tetrahydro-1H-cyclopropa[3,4]cyclopenta[1,2-c]pyrazol-1-yl}ethan-1-one]", "values": [{"measurement": "pIC50", "setting": "IDO1 [1]", "result": 6.53}, {"measurement": "pIC50", "setting": "IDO1 [2]", "result": 9.01}]}
{"smiles": "Cc1cccc(N2CCN(C(=O)Cn3nc(C(=O)N4CC[C@H](CO)C4)c4c3CCC4)CC2)c1C", "note": "[Example 83, 1-[4-(2,3-dimethylphenyl)piperazin-1-yl]-2-{3-[(3S)-3-(hydroxymethyl)pyrrolidine-1-carbonyl]-5,6-dihydrocyclopenta[c]pyrazol-1(4H)-yl}ethan-1-one]", "values": [{"measurement": "pIC50", "setting": "IDO1 [1]", "result": 5.46}, {"measurement": "pIC50", "setting": "IDO1 [2]", "result": 8.25}]}
{"smiles": "Cc1c(Cl)cccc1N1CCN(C(=O)Cn2nc(C(=O)N3CCC(OCCO)CC3)c3c2CCC(F)C3)CC1", "note": "(single isomer, unassigned) [Example 373, 1-(4-(3-chloro-2-methylphenyl)piperazin-1-yl)-2-(5-fluoro-3-(4-(2-hydroxyethoxy)piperidine-1-carbonyl)-4,5,6,7-tetrahydro-1H-indazol-1-yl)ethan-1-one]", "values": [{"measurement": "pIC50", "setting": "IDO1 [1]", "result": 6.69}, {"measurement": "pIC50", "setting": "IDO1 [2]", "result": 8.42}]}
{"smiles": "Cc1cccc(N2CCN(C(=O)Cn3nc(C(=O)N4C[C@@H](C)O[C@@H](C)C4)c4c3[C@H]3C[C@H]3C4)CC2)c1C", "note": "[Example 294, 2-{(4aS,5aS)-3-[(2R,6S)-2,6-dimethylmorpholine-4-carbonyl]-4,4a,5,5a-tetahydro-1H-cyclopropa[4,5]cyclopenta[1,2-c]pyrazol-1-yl}-1-[4-(2,3-dimethylphenyl)piperazin-1-yl]ethan-1-one]", "values": [{"measurement": "pIC50", "setting": "IDO1 [1]", "result": 5.84}, {"measurement": "pIC50", "setting": "IDO1 [2]", "result": 8.25}]}
{"smiles": "Cc1c(F)ccc(N2CCN(C(=O)Cn3nc(C(=O)N4CC[C@@H](O)[C@@H](F)C4)c4c3CCCC4)CC2)c1C", "note": "[Example 462, 1-(4-(4-fluoro-2,3-dimethylphenyl)piperazin-1-yl)-2-(3-((3S,4R)-3-fluoro-4-hydroxy-piperidine-1-carbonyl)-4,5,6,7-tetrahydro-1H-indazol-1-yl)ethanone,]", "values": [{"measurement": "pIC50", "setting": "IDO1 [1]", "result": 6.99}, {"measurement": "pIC50", "setting": "IDO1 [2]", "result": 8.88}]}
{"smiles": "Cc1cccc(N2CCN(C(=O)Cn3nc(C(=O)N4CCC(O)CC4)c4c3CC(C(F)F)C4)CC2)c1C", "note": "(single isomer, unassigned) [Example 10, 2-[5-(difluoromethyl)-3-(4-hydroxypiperidine-1-carbonyl)-5,6-dihydro-5H-cyclopenta[c]pyrazol-1-yl]-1-[4-(2,3-dimethylphenyl)piperazin-1-yl]ethanone]", "values": [{"measurement": "pIC50", "setting": "IDO1 [1]", "result": 6.63}, {"measurement": "pIC50", "setting": "IDO1 [2]", "result": 8.76}]}
{"smiles": "Cc1cccc(N2CCN(C(=O)Cn3nc(C(=O)N4CC[C@@H](O)C(F)(F)C4)c4c3CCC4)CC2)c1C", "note": "(single isomer, unassigned) [Example 202, 2-[3-[(4R or 4S)-3,3-difluoro-4-hydroxy-piperidine-1-carbonyl]-5,6-dihydro-4H-cyclopenta[c]pyrazol-1-yl]-1-[4-(2,3-dimethylphenyl)piperazin-1-yl]ethanone]", "values": [{"measurement": "pIC50", "setting": "IDO1 [1]", "result": 6.29}, {"measurement": "pIC50", "setting": "IDO1 [2]", "result": 8.23}]}
{"smiles": "Cc1cccc(N2CCN(C(=O)Cn3nc(C(=O)N4CCC(O)(CF)CC4)c4c3C[C@H]3C[C@@H]43)CC2)c1C", "note": "[Example 276, 1-[4-(2,3-dimethylphenyl)piperazin-1-yl]-2-{(3bR,4aR)-3-[4-(fluoromethyl)-4-hydroxypiperidine-1-carbonyl]-3b,4,4a,5-tetrahydro-1H-cyclopropa[3,4]cyclopenta[1,2-c]pyrazol-1-yl}ethan-1-one]", "values": [{"measurement": "pIC50", "setting": "IDO1 [1]", "result": 6.96}, {"measurement": "pIC50", "setting": "IDO1 [2]", "result": 8.69}]}
{"smiles": "Cc1c(N2CCN(C(=O)Cn3nc(C(=O)N4CCC(O)CC4)c4c3C[C@H]3C[C@@H]43)CC2)cccc1C(F)(F)F", "note": "[Example 338, 2-((3bR,4aR)-3-(4-hydroxypiperidine-1-carbonyl)-3b,4,4a,5-tetrahydro-1H-cyclopropa[3,4]cyclopenta[1,2-c]pyrazol-1-yl)-1-(4-(2-methyl-3-(trifluoromethyl)phenyl)piperazin-1-yl)ethanone]", "values": [{"measurement": "pIC50", "setting": "IDO1 [1]", "result": 6.88}, {"measurement": "pIC50", "setting": "IDO1 [2]", "result": 8.78}]}
{"smiles": "Cc1cccc(N2CCN(C(=O)Cn3nc(C(=O)N4CCN(C(=O)CO)CC4)c4c3C[C@H]3C[C@@H]43)C3(CC3)C2)c1C", "note": "[Example 355, 1-(4-((3bR,4aR)-1-(2-(7-(2,3-dimethylphenyl)-4,7-diazaspiro[2.5]octan-4-yl)-2-oxoethyl)-3b,4,4a,5-tetrahydro-1H-cyclopropa[3,4]cyclopenta[1,2-c]pyrazole-3-carbonyl)piperazin-1-yl)-2-hydroxyethanone]", "values": [{"measurement": "pIC50", "setting": "IDO1 [1]", "result": 6.08}, {"measurement": "pIC50", "setting": "IDO1 [2]", "result": 9.03}]}
{"smiles": "Cc1c(Cl)cccc1N1CCN(C(=O)Cn2nc(C(=O)N3CCC(O)CC3)c3c2CCC(F)(F)C3)CC1", "note": "[Example 379, 1-(4-(3-chloro-2-methylphenyl)piperazin-1-yl)-2-(5,5-difluoro-3-(4-hydroxypiperidine-1-carbonyl)-4,5,6,7-tetrahydro-1H-indazol-1-yl)ethan-1-one]", "values": [{"measurement": "pIC50", "setting": "IDO1 [1]", "result": 6.76}, {"measurement": "pIC50", "setting": "IDO1 [2]", "result": 8.49}]}
{"smiles": "Cc1cccc(N2CCN(C(=O)Cn3nc(C(=O)N4C[C@@H](C)O[C@@H](C)C4)c4c3CCC4)CC2)c1C", "note": "[Example 88, 2-{3-[(2R,6S)-2,6-dimethylmorpholine-4-carbonyl]-5,6-dihydrocyclopenta[c]pyrazol-1(4H)-yl}-1-[4-(2,3-dimethylphenyl)piperazin-1-yl]ethan-1-one]", "values": [{"measurement": "pIC50", "setting": "IDO1 [1]", "result": 6.38}, {"measurement": "pIC50", "setting": "IDO1 [2]", "result": 8.59}]}
{"smiles": "CC(=O)NC1CCN(C(=O)c2nn(CC(=O)N3CCN(c4cccc(Cl)c4C)CC3)c3c2CC(F)(F)CC3)CC1", "note": "[Example 380, N-(1-(1-(2-(4-(3-chloro-2-methylphenyl)piperazin-1-yl)-2-oxoethyl)-5,5-difluoro-4,5,6,7-tetrahydro-1H-indazole-3-carbonyl)piperidin-4-yl)acetamide]", "values": [{"measurement": "pIC50", "setting": "IDO1 [1]", "result": 7.03}, {"measurement": "pIC50", "setting": "IDO1 [2]", "result": 8.78}]}
{"smiles": "Cc1cccc(N2CCN(C(=O)Cn3nc(C(=O)N4CCC(O)CC4)c4c3CCCC4)CC2)c1C", "note": "[Example 466, 1-(4-(2,3-dimethylphenyl)piperazin-1-yl)-2-(3-(4-hydroxy-piperidine-1-carbonyl)-4,5,6,7-tetrahydro-1H-indazol-1-yl)ethanone]", "values": [{"measurement": "pIC50", "setting": "IDO1 [1]", "result": 6.63}, {"measurement": "pIC50", "setting": "IDO1 [2]", "result": 8.77}]}
{"smiles": "Cc1cccc(N2CCN(C(=O)Cn3nc(C(=O)N4CC[C@@H](O)[C@@H](F)C4)c4c3CCCC4)CC2)c1C", "note": "[Example 476, 1-(4-(2,3-dimethylphenyl)piperazin-1-yl)-2-(3-((3S,4R)-3-fluoro-4-hydroxypiperidine-1-carbonyl)-4,5,6,7-tetrahydro-1H-indazol-1-yl)ethanone]", "values": [{"measurement": "pIC50", "setting": "IDO1 [1]", "result": 6.79}, {"measurement": "pIC50", "setting": "IDO1 [2]", "result": 8.26}]}
{"smiles": "Cc1cccc(N2CCN(C(=O)Cn3nc(C(=O)N4CC[C@H](N)[C@@H](F)C4)c4c3CCC4)CC2)c1C", "note": "[Example 203, [(3S,4S)-1-[1-[2-[4-(2,3-dimethylphenyl)piperazin-1-yl]-2-oxo-ethyl]-5,6-dihydro-4H-cyclopenta[c]pyrazole-3-carbonyl]-3-fluoro-4-piperidyl]ammonium; formate]", "values": [{"measurement": "pIC50", "setting": "IDO1 [1]", "result": 6.56}, {"measurement": "pIC50", "setting": "IDO1 [2]", "result": 7.88}]}
{"smiles": "Cc1c(Cl)cccc1N1CCN(C(=O)Cn2nc(C(=O)N3CCN(C(=O)CO)CC3)c3c2CCC(F)(F)C3)CC1", "note": "[Example 384, 1-(4-(3-chloro-2-methylphenyl)piperazin-1-yl)-2-(5,5-difluoro-3-(4-(2-hydroxyacetyl)piperazine-1-carbonyl)-4,5,6,7-tetrahydro-1H-indazol-1-yl)ethan-1-one]", "values": [{"measurement": "pIC50", "setting": "IDO1 [1]", "result": 6.60}, {"measurement": "pIC50", "setting": "IDO1 [2]", "result": 8.27}]}
{"smiles": "Cc1c(Cl)cccc1N1CCN(C(=O)Cn2nc(C(=O)N3CCC(O)CC3)c3c2C(F)(F)[C@H]2C[C@@H]32)CC1", "note": "[Example 448, 1-(4-(3-chloro-2-methylphenyl)piperazin-1-yl)-2-((3bR,4aS)-5,5-difluoro-3-(4-hydroxypiperidine-1-carbonyl)-3b,4,4a,5-tetrahydro-1H-cyclopropa[3,4]cyclopenta[1,2-c]pyrazol-1-yl)ethanone]", "values": [{"measurement": "pIC50", "setting": "IDO1 [1]", "result": 6.44}, {"measurement": "pIC50", "setting": "IDO1 [2]", "result": 8.45}]}
